Measured values reported in patent US20250092039A1, “GLUTARIMIDE-CONTAINING PAN-KRAS-MUTANT DEGRADER COMPOUNDS AND USES THEREOF” (Tiger Biotherapeutics Inc., priority 2022, published 2025).
Like-named read-outs stand apart in the source and are kept apart here.

Tests used:
[1] = target: KRAS-G12V/RAF1 (Homo sapiens (Human), UniProt P01116, G12V); assay: KRAS/RAF1 binding inhibition assay (AlphaScreen)
Procedure, shortened: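 Binding of GppNHp-loaded KRAS G12V to the RAF1 RBD was measured by AlphaScreen with test compound present in 2% DMSO (final), 60 min incubation at 4° C. Signals were converted to % inhibition versus DMSO, and IC50 was obtained by variable-slope nonlinear regression.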

[2] = target: KRAS G12V (Homo sapiens (Human), UniProt P01116, G12V); assay: KRAS G12V degradation in SW620 cells (Western blot, DC50); format: cell-based; conditions: 24 hours
Procedure, shortened: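 SW620 cells (homozygous KRAS G12V) were treated with compound for 24 hours at 37° C. KRAS in lysates was measured by Western blot with fluorescent secondary antibodies and expressed relative to DMSO vehicle (100%). DC50 came from a four-parameter variable-slope dose-response fit.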

[3] = tested on: SW620 cells; assay: 3D cell growth inhibition of SW620 cells carrying endogenous KRAS G12V mutation (CellTiter-Glo 3D, GI50); format: cell-based; conditions: Homo sapiens, SW-620, 144 h, read-out: SW620 3D cell growth GI50
Method: The following day, the test compound was administered to the cells by using 1000× compound stock solution prepared in DMSO at various concentrations. 1000× compound stock solution was first diluted in culturing medium to 10×, then 10 μL compound medium was added to each well in the cell plates. After administration of the compound, the cells were then incubated at 37° C. for 6 days. Upon completion, the plates were equilibrated at room temperature for approximately 10 minutes. 100 μL of CellTiter-Glo® 3D Reagent (Promega) was added to each well. The plates were then incubated at room temperature for 30 minutes and luminescence was recorded by EnSpire plate reader (PerkinElmer).

Chain of KRAS G12V (P01116-2 other isoform, or with tags, fused parts or gaps G12V): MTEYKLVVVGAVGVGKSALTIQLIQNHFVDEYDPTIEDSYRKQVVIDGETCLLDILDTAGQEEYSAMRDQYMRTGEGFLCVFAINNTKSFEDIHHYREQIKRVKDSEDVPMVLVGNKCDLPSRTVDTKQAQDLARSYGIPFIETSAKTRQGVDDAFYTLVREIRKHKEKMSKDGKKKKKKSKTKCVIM
Chain of KRAS-G12V/RAF1 (P01116-2 other isoform, or with tags, fused parts or gaps G12V): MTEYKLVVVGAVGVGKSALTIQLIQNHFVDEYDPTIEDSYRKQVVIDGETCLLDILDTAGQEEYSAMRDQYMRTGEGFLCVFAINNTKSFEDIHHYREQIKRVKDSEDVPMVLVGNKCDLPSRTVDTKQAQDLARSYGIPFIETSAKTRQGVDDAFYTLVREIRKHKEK

SMILES	IC50 [1] [nM]	DC50 [2] [nM]	GI50 [3] [nM]	GI50 ([3]; SW620 cells, 6 days) [nM]
CCc1c(F)ccc2cc(O)cc(-c3ncc4c(N5CCOCC(C)(O)C5)nc(OCC5(CN6CCC7(CC6)CC(CN6CCN(c8ccc9c(c8)CN([C@H]8CCC(=O)NC8=O)C9=O)CC6)C7)CC5)nc4c3F)c12 (mixture of isomers) [Compound 91, (3S)-3-(5-(4-((7-((1-(((7-(8-ethyl-7-fluoro-3-hydroxynaphthalen-1-yl)-8-fluoro-4-(6-hydroxy-6-methyl-1,4-oxazepan-4-yl)pyrido[4,3-d]pyrimidin-2-yl)oxy)methyl)cyclopropyl)methyl)-7-azaspiro[3.5]nonan-2-yl)methyl)piperazin-1-yl)-1-oxoisoindolin-2-yl)piperidine-2,6-dione]	20 to 200	1 to 10	< 10	–
CCc1cccc2cc(O)cc(-c3ncc4c(N(C)[C@@H]5C[C@H]5F)nc(OCC5(CN6CCC(CN7CCN(c8ccc9c(c8)CN([C@H]8CCC(=O)NC8=O)C9=O)CC7)CC6)CC5)nc4c3F)c12 [Compound 29, (S)-3-(5-(4-((1-((1-(((7-(8-ethyl-3-hydroxynaphthalen-1-yl)-8-fluoro-4-(((1R,2R)-2-fluorocyclopropyl)(methyl)amino)pyrido[4,3-d]pyrimidin-2-yl)oxy)methyl)cyclopropyl)methyl)piperidin-4-yl)methyl)piperazin-1-yl)-1-oxoisoindolin-2-yl)piperidine-2,6-dione]	> 200	–	–	10 to 100
CCc1c(F)ccc2cc(O)cc(-c3ncc4c(N5CCCC6(CCO6)C5)nc(OCC5(CN6CCC(CN7CC(N8CCN(c9ccc%10c(c9)CN([C@H]9CCC(=O)NC9=O)C%10=O)CC8)C7)CC6)CC5)nc4c3F)c12 (stereo partly drawn) [Compound 37, (3S)-3-(5-(4-(1-((1-((1-(((7-(8-ethyl-7-fluoro-3-hydroxynaphthalen-1-yl)-8-fluoro-4-(1-oxa-6-azaspiro[3.5]nonan-6-yl)pyrido[4,3-d]pyrimidin-2-yl)oxy)methyl)cyclopropyl)methyl)piperidin-4-yl)methyl)azetidin-3-yl)piperazin-1-yl)-1-oxoisoindolin-2-yl)piperidine-2,6-dione]	–	1 to 10	–	< 10
CCc1c(F)ccc2cc(O)cc(-c3ncc4c(N5CCC[C@]6(CCO6)C5)nc(OCC5(CN6CCC(CN7CCN(c8ccc9c(c8)CN([C@H]8CCC(=O)NC8=O)C9=O)CC7)CC6)CC5)nc4c3F)c12 [Compound 44, (S)-3-(5-(4-((1-((1-(((7-(8-ethyl-7-fluoro-3-hydroxynaphthalen-1-yl)-8-fluoro-4-((S)-1-oxa-6-azaspiro[3.5]nonan-6-yl)pyrido[4,3-d]pyrimidin-2-yl)oxy)methyl)cyclopropyl)methyl)piperidin-4-yl)methyl)piperazin-1-yl)-1-oxoisoindolin-2-yl)piperidine-2,6-dione]	20 to 200	–	–	< 10
CCc1c(F)ccc2cc(O)cc(-c3ncc4c(N5CCC[C@@]6(CCO6)C5)nc(OCC5(CN6CCC(CN7CCN(c8ccc9c(c8)CN([C@H]8CCC(=O)NC8=O)C9=O)CC7)CC6)CC5)nc4c3F)c12 [Compound 45, (S)-3-(5-(4-((1-((1-(((7-(8-ethyl-7-fluoro-3-hydroxynaphthalen-1-yl)-8-fluoro-4-((R)-1-oxa-6-azaspiro[3.5]nonan-6-yl)pyrido[4,3-d]pyrimidin-2-yl)oxy)methyl)cyclopropyl)methyl)piperidin-4-yl)methyl)piperazin-1-yl)-1-oxoisoindolin-2-yl)piperidine-2,6-dione]	> 200	–	–	> 100
CCc1c(F)ccc2cc(O)cc(-c3ncc4c(N5CCC[C@]6(CCO6)C5)nc(OCC5(CN6CC7(CCC(N8CCN(c9cc(F)c(C%10CCC(=O)NC%10=O)c(F)c9)CC8)CC7)C6)CC5)nc4c3F)c12 (stereo partly drawn) [Compound 85, 3-(4-(4-(2-((1-(((7-(8-ethyl-7-fluoro-3-hydroxynaphthalen-1-yl)-8-fluoro-4-((S)-1-oxa-6-azaspiro[3.5]nonan-6-yl)pyrido[4,3-d]pyrimidin-2-yl)oxy)methyl)cyclopropyl)methyl)-2-azaspiro[3.5]nonan-7-yl)piperazin-1-yl)-2,6-difluorophenyl)piperidine-2,6-dione]	–	1 to 10	–	< 10
CCc1c(F)ccc2cc(O)cc(-c3ncc4c(N5CCCNC(=O)C5)nc(OCC5(CN6CCC7(CC6)CC(CN6CCN(c8ccc9c(c8)CN([C@H]8CCC(=O)NC8=O)C9=O)CC6)C7)CC5)nc4c3F)c12 [Compound 93, (S)-3-(5-(4-((7-((1-(((7-(8-ethyl-7-fluoro-3-hydroxynaphthalen-1-yl)-8-fluoro-4-(3-oxo-1,4-diazepan-1-yl)pyrido[4,3-d]pyrimidin-2-yl)oxy)methyl)cyclopropyl)methyl)-7-azaspiro[3.5]nonan-2-yl)methyl)piperazin-1-yl)-1-oxoisoindolin-2-yl)piperidine-2,6-dione]	–	> 100	–	> 100
CCc1c(F)ccc2cc(O)cc(-c3ncc4c(N5CCC[C@@](C)(O)C5)nc(OCC5(CN6CC7(CC(N8CCN(c9ccc%10c(c9)CN([C@H]9CCC(=O)NC9=O)C%10=O)CC8)C7)C6)CC5)nc4c3F)c12 [Compound 122, (S)-3-(5-(4-(2-((1-(((7-(8-ethyl-7-fluoro-3-hydroxynaphthalen-1-yl)-8-fluoro-4-((R)-3-hydroxy-3-methylpiperidin-1-yl)pyrido[4,3-d]pyrimidin-2-yl)oxy)methyl)cyclopropyl)methyl)-2-azaspiro[3.3]heptan-6-yl)piperazin-1-yl)-1-oxoisoindolin-2-yl)piperidine-2,6-dione]	–	1 to 10	–	< 10
C[C@@]1(O)CCCN(c2nc(OCC3(CN4CCC(CN5CCN(c6ccc7c(c6)CN([C@H]6CCC(=O)NC6=O)C7=O)CC5)CC4)CC3)nc3c(F)c(-c4cc(O)cc5ccc(F)c(Cl)c45)ncc23)C1 [Compound 156, (S)-3-(5-(4-((1-((1-(((7-(8-chloro-7-fluoro-3-hydroxynaphthalen-1-yl)-8-fluoro-4-((R)-3-hydroxy-3-methylpiperidin-1-yl)pyrido[4,3-d]pyrimidin-2-yl)oxy)methyl)cyclopropyl)methyl)piperidin-4-yl)methyl)piperazin-1-yl)-1-oxoisoindolin-2-yl)piperidine-2,6-dione]	–	< 1	–	< 10
C[C@@]1(O)CCCN(c2nc(OCC3(CN4CCC5(CC4)CC(CN4CCN(c6ccc7c(c6)CN([C@H]6CCC(=O)NC6=O)C7=O)CC4)C5)CC3)nc3c(F)c(-c4cc(O)cc5ccc(F)c(Cl)c45)ncc23)C1 [Compound 157, (S)-3-(5-(4-((7-((1-(((7-(8-chloro-7-fluoro-3-hydroxynaphthalen-1-yl)-8-fluoro-4-((R)-3-hydroxy-3-methylpiperidin-1-yl)pyrido[4,3-d]pyrimidin-2-yl)oxy)methyl)cyclopropyl)methyl)-7-azaspiro[3.5]nonan-2-yl)methyl)piperazin-1-yl)-1-oxoisoindolin-2-yl)piperidine-2,6-dione]	–	< 1	–	< 10
CCc1c(F)ccc2cc(O)cc(-c3ncc4c(N5CCC[C@@](C)(O)C5)nc(OCC5(CN6CC(N7CC8(CN(c9ccc%10c(c9)CN(C9CCC(=O)NC9=O)C%10=O)C8)C7)C6)CC5)nc4c3F)c12 (stereo partly drawn) [Compound 158, 3-(5-(6-(1-((1-(((7-(8-ethyl-7-fluoro-3-hydroxynaphthalen-1-yl)-8-fluoro-4-((R)-3-hydroxy-3-methylpiperidin-1-yl)pyrido[4,3-d]pyrimidin-2-yl)oxy)methyl)cyclopropyl)methyl)azetidin-3-yl)-2,6-diazaspiro[3.3]heptan-2-yl)-1-oxoisoindolin-2-yl)piperidine-2,6-dione]	–	1 to 10	–	< 10
CCc1c(F)ccc2cc(O)cc(-c3ncc4c(N5CCC[C@@](C)(O)C5)nc(OCC5(CN6CCC7(CC6)CC(C)(N6CCN(c8ccc9c(c8)CN(C8CCC(=O)NC8=O)C9=O)CC6)C7)CC5)nc4c3F)c12 (stereo partly drawn) [Compound 159, 3-[5-[4-[7-[[1-[[7-(8-ethyl-7-fluoro-3-hydroxy-1-naphthyl)-8-fluoro-4-[(3R)-3-hydroxy-3-methyl-1-piperidyl]pyrido[4,3-d]pyrimidin-2-yl]oxymethyl]cyclopropyl]methyl]-2-methyl-7-azaspiro[3.5]nonan-2-yl]piperazin-1-yl]-1-oxo-isoindolin-2-yl]piperidine-2,6-dione]	–	< 1	–	< 10
CCc1c(F)ccc2cc(O)cc(-c3ncc4c(N5CCCOC6CC65)nc(OCC5(CN6CCC7(CC6)CC(CN6CCN(c8ccc9c(c8)CN([C@H]8CCC(=O)NC8=O)C9=O)CC6)C7)CC5)nc4c3F)c12 (stereo partly drawn) [Compound 165, (3S)-3-(5-(4-((7-((1-(((4-(2-oxa-6-azabicyclo[5.1.0]octan-6-yl)-7-(8-ethyl-7-fluoro-3-hydroxynaphthalen-1-yl)-8-fluoropyrido[4,3-d]pyrimidin-2-yl)oxy)methyl)cyclopropyl)methyl)-7-azaspiro[3.5]nonan-2-yl)methyl)piperazin-1-yl)-1-oxoisoindolin-2-yl)piperidine-2,6-dione]	–	1 to 10	10 to 100	–
